Results as given in patent US20260166141A1, “PHARMACEUTICAL COMPOSITION OF RIP2 INHIBITOR IN COMBINATION WITH IMMUNE CHECKPOINT INHIBITOR AND USE THEREOF” (NINGBO COMBIREG PHARMACEUTICAL TECHNOLOGY CO., LTD., priority 2022, published 2026).

Legend:
Format in all cases: in vivo
colorectal cancer (MC38) [1] = assay: colorectal cancer (MC38) tumor-bearing model in C57BL/6 mice, GSK583 combined with atezolizumab; conditions: for tumor growth (tumor volume progression): atezolizumab 150 μg/mouse i.p. Days 0, 4, 11, GSK583 1 mg/kg i.v. once every 4 days, 4 doses, compared to IgG control
Experimental: Test substances atezolizumab (Roche) and IgG control antibody (in VivoMAb human IgG1 isotype control; BioXCell, BE0297) were prepared in saline. GSK583 was formulated as a 20× stock solution in DMSO and diluted to the dosing concentration with saline containing 5% polyoxyl 35 castor oil (Cremophor EL) before use.
(§1) Experimental animals and tumor lines: SPF-grade male wild-type C57BL/6 mice (6 to 8 weeks old, 20 to 25 g) were purchased from the Laboratory Animal Resources Center, Tsinghua University. The cells used in the experiment were murine colorectal cancer cells (MC38), which were purchased from the Cell Bank of Peking Union Medical College.
According to the method shown in (A and B of FIG. 3), the mice were subcutaneously inoculated with MC38 cells at a concentration of 5×10^6 cells/mL and 0.1 mL/mouse. When the tumor grew to a volume within the range of 100 mm^3, the mice were randomly divided into 4 groups based on tumor volume, with 6 to 8 mice per group, and dosing was initiated. The dosing regimen was as follows: (i) blank control (IgG control, 150 μg/mouse) group; (ii) GSK583 (1 mg/kg) group; (iii) atezolizumab (150 μg/mouse) group; (iv) atezolizumab (150 μg/mouse)+GSK583 (1 mg/kg). GSK583 was administered via intravenous injection once every 4 days for a total of 4 doses; IgG control and atezolizumab were administered via intraperitoneal injection on Days 0, 4, and 11 for a total of 3 doses. The day of grouping and dosing was recorded as Day 0. During the dosing process, the animals were weighed every 2 to 3 days, and the long and short diameters of the tumor were measured with a vernier caliper. The tumor size was calculated by the formula: (½)×long diameter×(short diameter)^2. The experiment was terminated on Day 15. After the mice were euthanized and dissected, the tumor was removed and weighed, and the tumor inhibition rate was calculated.

colorectal cancer (MC38) [2] = assay: colorectal cancer (MC38) tumor-bearing model in WT and RIP2−/− C57BL/6 mice, atezolizumab; conditions: for tumor growth (tumor volume progression): 150 μg/mouse i.p. Days 0, 4, 11, 18; for tumor weight: compared to corresponding control group
Experimental: Test substances atezolizumab (Roche) and IgG control antibody (in VivoMAb human IgG1 isotype control; BioXCell, BE0297) were prepared in saline. Experimental animals and tumor lines: SPF-grade male wild-type (WT) C57BL/6 mice (20 to 25 g) and RIP2 knockout (RIP2^−/−) mice (6 to 8 weeks old, 20 to 25 g) were purchased from Shanghai Model Organisms Center, Inc. The mice were generated using CRISPR-Cas9 technology and bred at the Laboratory Animal Resources Center, Tsinghua University. The cells used in the experiment were murine colorectal cancer cells (MC38), which were purchased from the Cell Bank of Peking Union Medical College.
According to the method shown in (A and B of FIG. 1), the mice were subcutaneously inoculated with MC38 cells at a concentration of 5×10^6 cells/mL and 0.1 mL/mouse. When the tumor grew to a volume within the range of 100 mm^3, WT mice and RIP2^−/− mice were randomly divided into 2 groups based on tumor volume, with 6 to 8 mice per group, and dosing was initiated. The dosing regimen was as follows: (i) WT-blank control (WT-IgG control, 150 μg/mouse) group; (ii) WT-atezolizumab (150 μg/mouse) group; (iii) RIP2^−/−-blank control (RIP2^−/−-IgG control, 150 μg/mouse) group; (iv) RIP2^−/−-atezolizumab (150 μg/mouse) group. IgG control and atezolizumab were administered via intraperitoneal injection on Days 0, 4, 11, and 18 for a total of 4 doses. The day of grouping and dosing was recorded as Day 0. During the dosing process, the animals were weighed every 2 to 3 days, and the long and short diameters of the tumor were measured with a vernier caliper. The tumor size was calculated by the formula: (1/2)×long diameter×(short diameter)^2. The experiment was terminated on Day 20. After the mice were euthanized and dissected, the tumor was removed and weighed, and the tumor inhibition rate was calculated by the formula: [([…])/average tumor weight of the control group]×100%.

colorectal cancer (MC38) [3] = assay: colorectal cancer (MC38) tumor-bearing model in C57BL/6 mice, GSK583 combined with pembrolizumab; conditions: Day 20; pembrolizumab 150 μg/mouse i.p.; GSK583 1 mg/kg i.v. once every 4 days; compared to IgG control
Experimental: Test substances pembrolizumab (Merck & Co., Inc.) and IgG control antibody (in VivoMAb human IgG1 isotype control; BioXCell, BE0297) were prepared in saline. GSK583 was formulated as a 20× stock solution in DMSO and diluted to the dosing concentration with saline containing 5% polyoxyl 35 castor oil (Cremophor EL) before use.
as §1
According to the method shown in (A and B of FIG. 7), the mice were subcutaneously inoculated with MC38 cells at a concentration of 5×10^6 cells/mL and 0.1 mL/mouse. When the tumor grew to a volume within the range of 100 mm^3, the mice were randomly divided into 3 groups based on tumor volume, with 6 to 7 mice per group, and dosing was initiated. […] The day of grouping and dosing was recorded as Day 0. During the dosing process, the animals were weighed every 2 to 3 days, and the long and short diameters of the tumor were measured with a vernier caliper. The tumor size was calculated by the formula: (½)×long diameter×(short diameter)^2. […]

Row | Compound | tumor growth (tumor volume progression) (colorectal cancer (MC38) [1]) | tumor weight (colorectal cancer (MC38) [1]; end of dosing (Day 15), compared to control group) | inhibitory effect on tumor growth, RIP2−/− mice compared to WT mice (colorectal cancer (MC38) [2]; 150 μg/mouse i.p., tumor volume) | tumor growth (tumor volume progression) (colorectal cancer (MC38) [2]; RIP2−/− mice, compared to RIP2−/−-IgG control) | tumor weight (colorectal cancer (MC38) [2]; RIP2−/− mice, end of dosing (Day 20)) | tumor growth (tumor volume progression) (colorectal cancer (MC38) [2]; WT mice, compared to WT-IgG control) | tumor weight (colorectal cancer (MC38) [2]; WT mice, end of dosing (Day 20)) | anti-tumor effect (tumor weight, tumor weight inhibition rate), RIP2−/− mice compared to WT mice (colorectal cancer (MC38) [2]; end of dosing (Day 20)) | tumor growth (tumor volume progression) (colorectal cancer (MC38) [3])
1 | CC(C)(C)S(=O)(=O)c1ccc2nccc(Nc3n[nH]c4ccc(F)cc34)c2c1 [GSK583] | no significant inhibitory effect on tumor growth |  |  |  |  |  |  |  | 
2 | atezolizumab: programmed death-ligand 1 (PD-L1) inhibitor, atezolizumab (Roche) | significantly inhibited tumor growth | significantly lower than that in the control group | significantly improved | significantly inhibited tumor growth | significantly reduced tumor weight | significantly inhibited tumor growth | significantly reduced tumor weight | significantly stronger than that in WT mice | 
3 | pembrolizumab: programmed death 1 (PD-1) inhibitor, pembrolizumab (Merck & Co., Inc.) |  |  |  |  |  |  |  |  | significantly inhibited tumor growth
